The test system of this assay is MV-4-11 cells. In words: Gene expression microarray analysis (Affymetrix PrimeView) and GSEA. The format is cell-based, human. On the set-up: RFU PODN (11730768_x_at) / Fold change /veh PODN (11730768_x_at) / RFU LINC00158 (11744669_a_at) / Fold change /veh LINC00158 (11744669_a_at) / RFU DUSP10 (11751237_a_at) / Fold change /veh DUSP10 (11751237_a_at) / RFU ID3 (11757404_x_at) / Fold change /veh ID3 (11757404_x_at) / RFU PLEKHG5 (11737974_s_at) / Fold change /veh PLEKHG5 (11737974_s_at) / RFU LRRC4B (11730491_at) / Fold change /veh LRRC4B (11730491_at) / RFU GIMAP4 (11747438_a_at) / Fold change /veh GIMAP4 (11747438_a_at) / RFU KRT8 (11758183_x_at) / Fold change /veh KRT8 (11758183_x_at) / RFU CNN1 (11734310_a_at) / Fold change /veh CNN1 (11734310_a_at) / RFU VPS37D (11726825_at) / Fold change /veh VPS37D (11726825_at) / RFU C10orf10 (11716522_x_at) / Fold change /veh C10orf10 (11716522_x_at) / RFU KIR2DL2 /// KIR2DL4 /// KIR2DL5A /// KIR2DL5B /// KIR2DS1 /// KIR2DS2 /// KIR2DS3 /// KIR2DS4 /// KIR3DL3 /// KIR3DL3 /// KIR3DS1 (11738374_at) / Fold change /veh KIR2DL2 /// KIR2DL4 /// KIR2DL5A /// KIR2DL5B /// KIR2DS1 /// KIR2DS2 /// KIR2DS3 /// KIR2DS4 /// KIR3DL3 /// KIR3DL3 /// KIR3DS1 (11738374_at) / RFU C1QL1 (11718748_at) / Fold change /veh C1QL1 (11718748_at) / RFU TMPRSS4 (11747572_a_at) / Fold change /veh TMPRSS4 (11747572_a_at) / RFU HAMP (11756126_x_at) / Fold change /veh HAMP (11756126_x_at) / RFU RNFT2 (11725882_a_at) / Fold change /veh RNFT2 (11725882_a_at) / RFU NR4A2 (11747474_a_at) / Fold change /veh NR4A2 (11747474_a_at) / RFU ABCC12 (11746883_a_at) / Fold change /veh ABCC12 (11746883_a_at) / RFU TMEM136 (11760407_x_at) / Fold change /veh TMEM136 (11760407_x_at) / RFU CLDN22 /// WWC2 (11732394_at) / Fold change /veh CLDN22 /// WWC2 (11732394_at) / RFU HLA-DPB1 (11760878_x_at) / Fold change /veh HLA-DPB1 (11760878_x_at) / RFU SPINT1 (11716480_a_at) / Fold change /veh SPINT1 (11716480_a_at) / RFU GAP43 (11754022_s_at) / Fold change /veh GAP43 (11754022_s_at) / RFU A4GNT (11735810_at) / Fold change /veh A4GNT (11735810_at) / RFU PRB3 (11715151_x_at) / Fold change /veh PRB3 (11715151_x_at) / RFU TUBB4B (11761932_at) / Fold change /veh TUBB4B (11761932_at) / RFU CAPN14 (11732068_a_at) / Fold change /veh CAPN14 (11732068_a_at) / RFU TMCC2 (11721928_a_at) / Fold change /veh TMCC2 (11721928_a_at) / RFU IRGQ (11745062_a_at) / Fold change /veh IRGQ (11745062_a_at) / RFU FAM174B (11720279_a_at) / Fold change /veh FAM174B (11720279_a_at) / RFU TMPRSS4 (11748680_a_at) / Fold change /veh TMPRSS4 (11748680_a_at) / RFU FAM212B (11763350_a_at) / Fold change /veh FAM212B (11763350_a_at) / RFU PLEKHG5 (11743358_a_at) / Fold change /veh PLEKHG5 (11743358_a_at) / RFU ZSCAN30 (11745921_a_at) / Fold change /veh ZSCAN30 (11745921_a_at) / RFU CMKLR1 (11741424_a_at) / Fold change /veh CMKLR1 (11741424_a_at) / RFU LOC101060620 /// MAPK8IP1 (11723275_at) / Fold change /veh LOC101060620 /// MAPK8IP1 (11723275_at) / RFU SPTSSB (11747773_x_at) / Fold change /veh SPTSSB (11747773_x_at) / RFU PRSS12 (11739890_at) / Fold change /veh PRSS12 (11739890_at) / RFU BIN1 (11741810_x_at) / Fold change /veh BIN1 (11741810_x_at) / RFU WNT11 (11732464_a_at) / Fold change /veh WNT11 (11732464_a_at) / RFU C10orf10 (11716521_a_at) / Fold change /veh C10orf10 (11716521_a_at) / RFU C5orf56 (11738089_at) / Fold change /veh C5orf56 (11738089_at) / RFU CYB561 (11721691_x_at) / Fold change /veh CYB561 (11721691_x_at) / RFU ANKRD19P (11752326_a_at) / Fold change /veh ANKRD19P (11752326_a_at) / RFU OR2T12 /// OR2T33 /// OR2T8 (11738714_s_at) / Fold change /veh OR2T12 /// OR2T33 /// OR2T8 (11738714_s_at) / RFU VCAN (11748164_a_at) / Fold change /veh VCAN (11748164_a_at) / RFU JSRP1 (11732532_at) / Fold change /veh JSRP1 (11732532_at) / RFU KRTAP10-11 (11738290_x_at) / Fold change /veh KRTAP10-11 (11738290_x_at) / RFU MYO3A (11730013_a_at) / Fold change /veh MYO3A (11730013_a_at) / RFU EBF3 (11725865_a_at) / Fold change /veh EBF3 (11725865_a_at) / RFU CAMK2N1 (11719241_x_at) / Fold change /veh CAMK2N1 (11719241_x_at) / RFU C5orf56 (11738088_a_at) / Fold change /veh C5orf56 (11738088_a_at) / RFU OLFML3 (11715873_a_at) / Fold change /veh OLFML3 (11715873_a_at) / RFU LOC100653217 /// NTM (11731650_a_at) / Fold change /veh LOC100653217 /// NTM (11731650_a_at) / RFU MAPK11 (11762145_a_at) / Fold change /veh MAPK11 (11762145_a_at) / RFU FIZ1 (11724087_x_at) / Fold change /veh FIZ1 (11724087_x_at) / RFU OASL (11726364_x_at) / Fold change /veh OASL (11726364_x_at) / RFU SOX15 (11748057_x_at) / Fold change /veh SOX15 (11748057_x_at) / RFU CD79A (11719716_a_at) / Fold change /veh CD79A (11719716_a_at) / RFU HIST1H1D (11736915_at) / Fold change /veh HIST1H1D (11736915_at) / RFU CASKIN2 (11723855_a_at) / Fold change /veh CASKIN2 (11723855_a_at) / RFU LOC730098 (11760151_x_at) / Fold change /veh LOC730098 (11760151_x_at) / RFU OR4N2 (11742367_at) / Fold change /veh OR4N2 (11742367_at) / RFU PRRT2 (11749266_a_at) / Fold change /veh PRRT2 (11749266_a_at) / RFU SNX32 (11753110_a_at) / Fold change /veh SNX32 (11753110_a_at) / RFU CDHR5 (11726645_a_at) / Fold change /veh CDHR5 (11726645_a_at) / RFU RCAN1 (11760418_a_at) / Fold change /veh RCAN1 (11760418_a_at) / RFU FAM167A (11723789_a_at) / Fold change /veh FAM167A (11723789_a_at) / RFU FAM26E (11764081_at) / Fold change /veh FAM26E (11764081_at) / RFU ISYNA1 (11749810_s_at) / Fold change /veh ISYNA1 (11749810_s_at) / RFU ACY1 (11761880_at) / Fold change /veh ACY1 (11761880_at) / RFU 11764098_at / Fold change /veh 11764098_at / RFU SAMD14 (11745864_x_at) / Fold change /veh SAMD14 (11745864_x_at) / RFU NPB (11741838_a_at) / Fold change /veh NPB (11741838_a_at) / RFU TMPRSS6 (11731388_a_at) / Fold change /veh TMPRSS6 (11731388_a_at) / RFU KRTAP10-2 (11738614_at) / Fold change /veh KRTAP10-2 (11738614_at) / RFU ARHGAP8 /// PRR5-ARHGAP8 (11727945_x_at) / Fold change /veh ARHGAP8 /// PRR5-ARHGAP8 (11727945_x_at) / RFU KRTAP5-7 /// NADSYN1 (11734609_at) / Fold change /veh KRTAP5-7 /// NADSYN1 (11734609_at) / RFU RASL12 (11751679_a_at) / Fold change /veh RASL12 (11751679_a_at) / RFU CDKN2B (11736163_a_at) / Fold change /veh CDKN2B (11736163_a_at) / RFU PRF1 (11729649_at) / Fold change /veh PRF1 (11729649_at) / RFU, ZNF638 /// ZNF638-IT1 / Fold change vs veh, ZNF638 /// ZNF638-IT1 / RFU, PANK3 / Fold change vs veh, PANK3 / RFU, SH3YL1 / Fold change vs veh, SH3YL1 / RFU, ZEB2 / Fold change vs veh, ZEB2 / RFU, NRIP1 / Fold change vs veh, NRIP1 / RFU, PTTG1IP / Fold change vs veh, PTTG1IP / RFU, CAPN2 / Fold change vs veh, CAPN2 / RFU, MED14 / Fold change vs veh, MED14 / RFU, SNORA58 / Fold change vs veh, SNORA58 / RFU, C1orf63 / Fold change vs veh, C1orf63 / RFU, LRRFIP1 / Fold change vs veh, LRRFIP1 / RFU, NDUFAF7 / Fold change vs veh, NDUFAF7 / RFU, SLC12A2 / Fold change vs veh, SLC12A2 / RFU, IBTK / Fold change vs veh, IBTK / RFU, ESF1 / Fold change vs veh, ESF1 / Fold change vs veh, TMEM50B / RFU, TAOK1 / Fold change vs veh, TAOK1 / RFU, ACBD3 / Fold change vs veh, ACBD3 / RFU, TMA16 / Fold change vs veh, TMA16 / RFU, RWDD3 / Fold change vs veh, RWDD3 / RFU, BCAT1 / Fold change vs veh, BCAT1 / RFU, EDEM3 / Fold change vs veh, EDEM3 / RFU, TMEM33 / Fold change vs veh, TMEM33 / RFU, WDR75 / Fold change vs veh, WDR75 / RFU, AHCTF1 / Fold change vs veh, AHCTF1 / RFU, TFRC / Fold change vs veh, TFRC / RFU, ZDHHC17 / Fold change vs veh, ZDHHC17 / RFU, NOM1 / Fold change vs veh, NOM1 / RFU, ARL8B / Fold change vs veh, ARL8B / RFU, ZBTB11 / Fold change vs veh, ZBTB11 / RFU, TAMM41 / Fold change vs veh, TAMM41 / RFU, KIAA1704 /// LOC100996395 / Fold change vs veh, KIAA1704 /// LOC100996395 / RFU, ING1 / Fold change vs veh, ING1 / RFU, TRMT61B / Fold change vs veh, TRMT61B / RFU, FUBP3 / Fold change vs veh, FUBP3 / RFU, TP53 / Fold change vs veh, TP53 / RFU, TNKS2 / Fold change vs veh, TNKS2 / RFU, ZFP14 / Fold change vs veh, ZFP14 / RFU, ACTR2 / Fold change vs veh, ACTR2 / RFU, PPP3R1 / Fold change vs veh, PPP3R1 / RFU, PIK3R1 / Fold change vs veh, PIK3R1 / RFU, HNRNPA1 / Fold change vs veh, HNRNPA1 / RFU, RNF170 / Fold change vs veh, RNF170 / RFU, ZNF28 / Fold change vs veh, ZNF28 / RFU, RNGTT / Fold change vs veh, RNGTT / RFU, OGT / Fold change vs veh, OGT / RFU, BRD1 / Fold change vs veh, BRD1 / RFU, MARS / Fold change vs veh, MARS / RFU, ZNF655 / Fold change vs veh, ZNF655 / RFU, FAHD1 / Fold change vs veh, FAHD1 / RFU, BDP1 / Fold change vs veh, BDP1 / RFU, LRRCC1 / Fold change vs veh, LRRCC1 / RFU, ARID1A / Fold change vs veh, ARID1A / RFU, ZNF146 / Fold change vs veh, ZNF146 / RFU, ZNF330 / Fold change vs veh, ZNF330 / RFU, GPN3 / Fold change vs veh, GPN3 / RFU, C9orf123 / Fold change vs veh, C9orf123 / RFU, N4BP2L2 / Fold change vs veh, N4BP2L2 / RFU, ARFIP1 / Fold change vs veh, ARFIP1 / RFU, FAM179B / Fold change vs veh, FAM179B / RFU, BCL10 / Fold change vs veh, BCL10 / RFU, UHRF1BP1L / Fold change vs veh, UHRF1BP1L / RFU, BET1 / Fold change vs veh, BET1 / RFU, CNOT2 / Fold change vs veh, CNOT2 / RFU, ZNF268 / Fold change vs veh, ZNF268 / Fold change vs veh, ZNF507 / RFU, DGCR2 / Fold change vs veh, DGCR2 / RFU, WDSUB1 / Fold change vs veh, WDSUB1 / Fold change vs veh, HSP90B1 /// MIR3652 / RFU, ADSS / Fold change vs veh, ADSS / RFU, GK / Fold change vs veh, GK / RFU, ZNF148 / Fold change vs veh, ZNF148 / RFU, TAF9 / Fold change vs veh, TAF9 / RFU, SLC1A5 / Fold change vs veh, SLC1A5 / RFU, SLMO2 / Fold change vs veh, SLMO2 / RFU, ABCC4 / Fold change vs veh, ABCC4 / RFU, LOC101060439 /// RAP1B / Fold change vs veh, LOC101060439 /// RAP1B / RFU, RFX7 / Fold change vs veh, RFX7 / RFU, GTPBP10 / Fold change vs veh, GTPBP10 / RFU, CNEP1R1 / Fold change vs veh, CNEP1R1 / RFU, BIVM-ERCC5 /// ERCC5 / Fold change vs veh, BIVM-ERCC5 /// ERCC5 / RFU, ILF3 / Fold change vs veh, ILF3 / RFU 11762660_at / Fold change /veh 11762660_at / RFU VCAN (11757783_s_at) / Fold change /veh VCAN (11757783_s_at) / RFU DDX43 (11728927_at) / Fold change /veh DDX43 (11728927_at) / RFU KRT8 (11758188_x_at) / Fold change /veh KRT8 (11758188_x_at) / RFU NKD1 (11759106_at) / Fold change /veh NKD1 (11759106_at) / RFU SRD5A1 (11742802_a_at) / Fold change /veh SRD5A1 (11742802_a_at) / RFU TPSAB1 /// TPSB2 (11721975_s_at) / Fold change /veh TPSAB1 /// TPSB2 (11721975_s_at) / RFU GSTM3 (11746129_a_at) / Fold change /veh GSTM3 (11746129_a_at) / RFU IL23R (11737362_x_at) / Fold change /veh IL23R (11737362_x_at) / RFU TMEM51 (11727254_a_at) / Fold change /veh TMEM51 (11727254_a_at) / RFU PIWIL2 (11732686_x_at) / Fold change /veh PIWIL2 (11732686_x_at) / RFU ORM1 (11744905_x_at) / Fold change /veh ORM1 (11744905_x_at) / RFU CCDC152 (11743942_at) / Fold change /veh CCDC152 (11743942_at) / RFU ECM1 (11717891_a_at) / Fold change /veh ECM1 (11717891_a_at) / RFU IL23R (11748794_a_at) / Fold change /veh IL23R (11748794_a_at) / RFU TNFAIP8L3 (11732012_x_at) / Fold change /veh TNFAIP8L3 (11732012_x_at) / RFU MBOAT4 (11741988_at) / Fold change /veh MBOAT4 (11741988_at) / RFU 11764193_at / Fold change /veh 11764193_at / RFU TMEM53 (11763286_at) / Fold change /veh TMEM53 (11763286_at) / RFU MAGEB2 (11727129_at) / Fold change /veh MAGEB2 (11727129_at) / RFU TMEM200A (11744735_a_at) / Fold change /veh TMEM200A (11744735_a_at) / RFU CCDC152 (11751479_a_at) / Fold change /veh CCDC152 (11751479_a_at) / RFU FAM211A (11726209_a_at) / Fold change /veh FAM211A (11726209_a_at) / RFU RGS16 (11746705_a_at) / Fold change /veh RGS16 (11746705_a_at) / RFU VCAN (11755009_s_at) / Fold change /veh VCAN (11755009_s_at) / RFU RHOB (11743442_s_at) / Fold change /veh RHOB (11743442_s_at) / RFU RGS16 (11720943_a_at) / Fold change /veh RGS16 (11720943_a_at) / RFU RGS16 (11720944_at) / Fold change /veh RGS16 (11720944_at) / RFU, VPS4B / Fold change vs veh, VPS4B / RFU, CREB1 / Fold change vs veh, CREB1 / RFU, DNAJC13 / Fold change vs veh, DNAJC13 / RFU, GNAQ / Fold change vs veh, GNAQ / RFU, CDK5R1 / Fold change vs veh, CDK5R1 / RFU, ZRANB3 / Fold change vs veh, ZRANB3 / RFU, CUL4A / Fold change vs veh, CUL4A / RFU, CCNY / Fold change vs veh, CCNY / RFU, UFL1 / Fold change vs veh, UFL1 / RFU, COG3 / Fold change vs veh, COG3 / RFU, DIAPH2 / Fold change vs veh, DIAPH2 / RFU, SKA2 / Fold change vs veh, SKA2 / RFU, AFF3 / Fold change vs veh, AFF3 / RFU, LMF1 / Fold change vs veh, LMF1 / RFU, IPO11 / Fold change vs veh, IPO11 / RFU, DFFB / Fold change vs veh, DFFB / RFU, FOXP1 / Fold change vs veh, FOXP1 / RFU, CARD8 / Fold change vs veh, CARD8 / RFU, STRN3 / Fold change vs veh, STRN3 / RFU, ADK / Fold change vs veh, ADK / RFU, RASSF2 / Fold change vs veh, RASSF2 / RFU, WIPF1 / Fold change vs veh, WIPF1 / RFU, LARP1B / Fold change vs veh, LARP1B / RFU, RASA1 / Fold change vs veh, RASA1 / RFU, RB1 / Fold change vs veh, RB1 / RFU, PPFIA1 / Fold change vs veh, PPFIA1 / RFU, MAT2A / Fold change vs veh, MAT2A / RFU, CCT5 / Fold change vs veh, CCT5 / RFU, WDR92 / Fold change vs veh, WDR92 / RFU, CUX1 / Fold change vs veh, CUX1 / RFU, TTC7A / Fold change vs veh, TTC7A / RFU, TMEM135 / Fold change vs veh, TMEM135 / RFU, DEPTOR / Fold change vs veh, DEPTOR / RFU, CPM / Fold change vs veh, CPM / RFU, DNAJB6 / Fold change vs veh, DNAJB6 / RFU, CACNA2D3 / Fold change vs veh, CACNA2D3 / RFU, DTX4 / Fold change vs veh, DTX4 / RFU, TFCP2 / Fold change vs veh, TFCP2 / RFU, GMCL1 /// GMCL1P1 / Fold change vs veh, GMCL1 /// GMCL1P1 / RFU, AEBP2 / Fold change vs veh, AEBP2 / RFU, SNHG1 /// SNORD22 /// SNORD25 /// SNORD26 /// SNORD27 /// SNORD28 /// SNORD29 /// SNORD31 / Fold change vs veh, SNHG1 /// SNORD22 /// SNORD25 /// SNORD26 /// SNORD27 /// SNORD28 /// SNORD29 /// SNORD31 / Fold change (Aza/veh), C12orf56 (ProbeSet 11735607_a_at) / Fold change (ACY-1035/veh), C12orf56 (ProbeSet 11735607_a_at) / Fold change (Aza/veh), FGFR1OP (ProbeSet 11751329_s_at) / Fold change (ACY-1035/veh), FGFR1OP (ProbeSet 11751329_s_at) / Fold change (Aza/veh), VPS36 (ProbeSet 11739960_a_at) / Fold change (ACY-1035/veh), VPS36 (ProbeSet 11739960_a_at) / RFU SYPL1 (11715823_x_at) / Fold change /veh SYPL1 (11715823_x_at) / RFU IGFBP7 (11715501_s_at) / Fold change /veh IGFBP7 (11715501_s_at) / RFU REEP3 (11722064_at) / Fold change /veh REEP3 (11722064_at) / RFU IGLL1 (11728026_x_at) / Fold change /veh IGLL1 (11728026_x_at): dose or concentration left out as unconfirmed. The settings on record: ProbeSet 11758919_x_at; LIST D.

Turning to `Nc1ccc(-c2cccs2)cc1NC(=O)c1ccc2c(c1)cc(C1CC1)n2CCN1CCOCC1` [ACY-1035], the “RFU, TFCP2” value was 87.13 RFU.

Values taken from paper PMC5218480 (PLoS ONE, 2017).
